{"source": "patent US10093623B2", "about": "“Cyclic amides as MetAP-2 inhibitors” (MERCK PATENT GmbH, priority 2012, dated 2018)"}
{"target": "MetAP-2 (Homo sapiens, UniProt P50579)", "sequence (P50579 whole entry, species assumed)": "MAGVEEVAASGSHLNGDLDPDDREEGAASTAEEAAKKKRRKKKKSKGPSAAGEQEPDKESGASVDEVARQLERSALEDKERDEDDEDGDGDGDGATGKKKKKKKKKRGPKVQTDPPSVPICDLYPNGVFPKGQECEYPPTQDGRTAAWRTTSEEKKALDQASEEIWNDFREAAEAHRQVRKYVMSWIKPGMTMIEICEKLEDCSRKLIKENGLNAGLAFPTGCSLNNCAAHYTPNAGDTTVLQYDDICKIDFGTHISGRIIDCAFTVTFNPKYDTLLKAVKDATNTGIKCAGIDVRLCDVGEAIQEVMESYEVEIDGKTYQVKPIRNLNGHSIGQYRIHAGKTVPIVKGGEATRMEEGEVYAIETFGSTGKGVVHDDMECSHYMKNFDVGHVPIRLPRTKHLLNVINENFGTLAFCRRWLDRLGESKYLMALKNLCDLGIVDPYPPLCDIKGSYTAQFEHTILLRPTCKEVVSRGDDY", "assay": "MetAP-2 activity measurement (coupled enzymatic reactions, Met-Arg-Ser substrate, dianisidine detection at 450 nm)", "format": "biochemical", "settings": "Inhibition of MetAP-2; read-out: IC50 enzyme", "method_in_brief": "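Rate read from the linear part of the 450 nm absorbance trace. Dianisidine oxidation by peroxidase reports H2O2 made when amino acid oxidase acts on methionine cleaved from MAS tripeptide, one mol dye per mol Met; extinction coefficient gives molar activity.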", "units": {"IC50": "µM"}}
{"smiles": "O=C1NCCc2ccc(N3CCC(O)(C(=O)NCc4cc(F)cc(Cl)c4)C3=O)cc21", "note": "(stereo not drawn) [A115, N-(3-Chloro-5-fluorobenzyl)-3-hydroxy-2-oxo-1-(1-oxo-1,2,3,4-tetrahydroisoquinolin-7-yl)-pyrrolidine-3-carboxamide]", "IC50": "0.01 to 1"}
{"smiles": "NC(=O)c1cc(C(N)=O)cc(N2CCC(O)(C(=O)NCc3cc(F)cc(Cl)c3)C2=O)c1", "note": "(stereo not drawn) [A130, 5-[3-(3-Chloro-5-fluorobenzylcarbamoyl)-3-hydroxy-2-oxopyrrolidin-1-yl]-isophthalamide]", "IC50": "1 to 10"}
{"smiles": "O=C(CN1CCC(O)(C(=O)NCc2cc(F)cc(Cl)c2)C1=O)NCCO", "note": "(stereo not drawn) [A282, N-(3-Chloro-5-fluorobenzyl)-3-hydroxy-1-[(2-hydroxy-ethylcarbamoyl)methyl]-2-oxo-pyrrolidine-3-carboxamide]", "IC50": "1 to 10"}
{"smiles": "C=C(Cc1ccccc1)C(=O)[C@@]1(O)CCN(c2ccccc2)C1=O", "note": "[A110, (S)-3-(2-Benzylacryloyl)-3-hydroxy-1-phenylpyrrolidin-2-one]", "IC50": "> 10"}
{"smiles": "O=C(NCc1cc(F)cc(Cl)c1)[C@@]1(O)CCN(c2ccc3[nH]c(=O)ccc3c2)C1=O", "note": "[B40, N-(3-Chloro-5-fluorobenzyl)-(S)-3-hydroxy-2-oxo-1-(2-oxo-1,2-dihydroquinolin-6-yl)pyrrolidine-3-carboxamide]", "IC50": "0.01 to 1"}
{"smiles": "O=C(NCc1cc(F)cc(Cl)c1)C1(O)CCN(Cc2cc[nH]n2)C1=O", "note": "(stereo not drawn) [A277, N-(3-Chloro-5-fluorobenzyl)-3-hydroxy-2-oxo-1-(1H-pyrazol-3-ylmethyl)pyrrolidine-3-carboxamide]", "IC50": "0.01 to 1"}
{"smiles": "O[C@]1(CNCc2ccc(F)cc2)CCCN(Cc2ccccc2)C1", "note": "[B21, (S)-1-Benzyl-3-[(4-fluorobenzylamino)methyl]-piperidin-3-ol]", "IC50": "> 10"}
{"smiles": "COc1ccc(CN2CC[C@](O)(C(=O)NCc3cc(F)cc(Cl)c3)C2=O)cc1", "note": "[A181, N-(3-Chloro-5-fluorobenzyl)-(S)-3-hydroxy-1-(4-methoxybenzyl)-2-oxopyrrolidine-3-carboxamide]", "IC50": "0.01 to 1"}
{"smiles": "O=C(NCc1cc(F)cc(Cl)c1)[C@]1(O)CCN(c2ccc3[nH]cc(C(F)(F)F)c3c2)C1=O", "note": "[B73, N-(3-Chloro-5-fluorobenzyl)-(R)-3-hydroxy-2-oxo-1-(3-trifluoro-methyl-1H-indol-5-yl)pyrrolidine-3-carboxamide]", "IC50": "> 10"}
{"smiles": "O=C1COc2cc(N3CC[C@](O)(C(=O)NCc4cc(F)cc(Cl)c4)C3=O)ccc2N1", "note": "[A197, N-(3-Chloro-5-fluorobenzyl)-(S)-3-hydroxy-2-oxo-1-(3-oxo-3,4-dihydro-2H-benzo-1,4-oxazin-7-yl)pyrrolidine-3-carboxamide]", "IC50": "0.01 to 1"}
{"smiles": "CC(=O)N1CC[C@@H](N2CCC(O)(C(=O)NCc3cc(F)cc(Cl)c3)C2=O)C1", "note": "(stereo partly drawn) [A291, N-(3-chloro-5-fluorobenzyl-)(R)-1′-acetyl-3-hydroxy-2-oxo-[1,3′]bipyrrolidinyl-3-carboxamide]", "IC50": "1 to 10"}
{"smiles": "CC(C)(C)OC(=O)Nc1ccc(N2CCC(O)(C(=O)NCc3cc(F)cc(Cl)c3)C2=O)cc1CCC(=O)O", "note": "(stereo not drawn) [B106, 3-{2-tert-Butoxycarbonylamino-5-[3-(3-chloro-5-fluorobenzyl-carbamoyl)-3-hydroxy-2-oxo-pyrrolidin-1-yl]phenyl}propionic acid]", "IC50": "1 to 10"}
{"smiles": "NCCOCCNC(=O)c1cc2cc(N3CC[C@](O)(C(=O)NCc4cc(F)cc(Cl)c4)C3=O)ccc2[nH]1", "note": "[B113, N-[2-(2-Aminoethoxy)ethyl]-5-[(S)-3-(3-chloro-5-fluorobenzylcarbamoyl)-3-hydroxy-2-oxopyrrolidin-1-yl]-1H-indole-2-carboxamide]", "IC50": "0.01 to 1"}
{"smiles": "N#Cc1c[nH]c2ccc(N3CC[C@](O)(C(=O)NCc4cc(F)cc(Cl)c4)C3=O)cc12", "note": "[A222, N-(3-Chloro-5-fluorobenzyl)-(S)-1-(3-cyano-1H-indol-5-yl)-3-hydroxy-2-oxopyrrolidine-3-carboxamide]", "IC50": "0.01 to 1"}
{"smiles": "CNC(=O)c1cccc(N2CC[C@](O)(C(=O)NCc3cc(F)cc(Cl)c3)C2=O)c1", "note": "[A161, N-(3-Chloro-5-fluorobenzyl)-(S)-3-hydroxy-1-(3-methyl-carbamoylphenyl)-2-oxo-pyrrolidine-3-carboxamide]", "IC50": "0.01 to 1"}
